Results published in patent US8680159B2, “Bradykinin 1 receptor modulating compounds” (Gruenenthal GmbH, priority 2010, dated 2014).

What was measured:
[1] = molecular target: T1, B1R receptor of the rat (CHO K1 cells stably transfected with the B1R gene of the rat) (Rattus norvegicus, UniProt P97583); test: Functional study on the bradykinin receptor 1 (B1R), Ca2+ fluorescence (Fluo-4) FLIPR/Novostar assay, rB1R cells; format: cell-based; conditions: for inhibition at 10 µM: CHO-K1, 10 μM, read-out: % Inhibition (r-B1R) at 10 μM
T1 construct: expressed in transfected cells; host or cells: CHO K1 cells (Chinese hamster ovary), stably transfected
T1 sequence (P97583 1-337): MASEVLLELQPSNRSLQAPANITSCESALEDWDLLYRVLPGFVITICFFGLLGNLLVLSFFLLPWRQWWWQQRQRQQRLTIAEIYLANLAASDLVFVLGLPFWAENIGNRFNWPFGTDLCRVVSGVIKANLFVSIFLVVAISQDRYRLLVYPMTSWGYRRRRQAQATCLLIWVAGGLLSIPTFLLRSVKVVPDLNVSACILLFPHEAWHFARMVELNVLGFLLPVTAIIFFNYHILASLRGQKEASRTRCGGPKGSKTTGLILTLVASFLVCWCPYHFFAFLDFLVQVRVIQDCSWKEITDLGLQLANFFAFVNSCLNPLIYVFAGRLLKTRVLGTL
Procedure, shortened: (§1)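 Ca2+ influx (Fluo-4, peak fluorescence, λex 488/λem 540 nm) was measured in CHO K1 lines expressing rat or human B1R. After a 10 μM test-compound pre-addition scoring % activation, cells received EC80 agonist: Des-Arg9-bradykinin for rat, Lys-Des-Arg9-bradykinin for human. Antagonism was expressed as % of maximum inhibition, with IC50 from varied concentrations.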

[2] = molecular target: T2, human B1R receptor (CHO K1 cells stably transfected with the human B1R gene) (Homo sapiens, UniProt P46663); test: Functional study on the bradykinin receptor 1 (B1R), Ca2+ fluorescence (Fluo-4) FLIPR/Novostar assay, hB1R cells; format: cell-based; conditions: CHO-K1, read-out: % Inhibition (h-B1R) at 10 μM
T2 construct: expressed in transfected cells; host or cells: CHO K1 cells (Chinese hamster ovary), stably transfected
T2 sequence (P46663 1-353): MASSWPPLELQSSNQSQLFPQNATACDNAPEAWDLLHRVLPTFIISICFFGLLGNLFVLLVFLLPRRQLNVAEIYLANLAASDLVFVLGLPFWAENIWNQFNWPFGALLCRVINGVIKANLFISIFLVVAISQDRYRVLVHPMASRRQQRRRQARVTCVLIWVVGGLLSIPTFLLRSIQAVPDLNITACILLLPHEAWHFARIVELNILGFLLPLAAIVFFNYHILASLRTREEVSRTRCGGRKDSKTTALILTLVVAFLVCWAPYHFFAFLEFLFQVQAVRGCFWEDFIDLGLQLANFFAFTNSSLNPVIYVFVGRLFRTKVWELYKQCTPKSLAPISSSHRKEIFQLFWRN
Procedure, shortened: as §1

Row | SMILES | inhibition at 10 µM [1] | inhibition at 10 µM [2] | % Inhibition (r-B1R) at 10 μM [1]
1 | CN(C(=O)NC1CCc2ccc(C(=O)N(C)C3CCN(c4ccncc4)CC3)cc21)c1ccccc1Cl (stereo not shown) [CC_H-44, 3-[[(2-Chlorophenyl)-methyl-carbamoyl]amino]-N-methyl-N-(1-pyridin-4-yl-piperidin-4-yl)-2,3-dihydro-1H-indene-5-carboxylic acid amide] | 104% | 100% | –
2 | CN(C(=O)c1ccc2c(c1)C(N(C)C(=O)c1cncnc1)CC2)C1CCN(c2ccncc2)CC1 (stereo not shown) [CC_H-45, N-Methyl-N-[6-[methyl-(1-pyridin-4-yl-piperidin-4-yl)-carbamoyl]-2,3-dihydro-1H-inden-1-yl]-pyrimidine-5-carboxylic acid amide] | 88% | 96% | –
3 | CN(C(=O)c1ccc2c(c1)C(N(C)S(=O)(=O)Cc1ccccc1C(F)(F)F)CC2)C1CCN(c2ccncc2)CC1 (stereo not shown) [CC_H-46, N-Methyl-3-[methyl-[[2-(trifluoromethyl)-phenyl]-methylsulfonyl]-amino]-N-(1-pyridin-4-yl-piperidin-4-yl)-2,3-dihydro-1H-indene-5-carboxylic acid amide] | 104% | 99% | –
4 | CN(C(=O)c1ccc2c(c1)C(NS(=O)(=O)c1c(Cl)cccc1C(F)(F)F)CCO2)C1CCN(c2ccncc2)CC1 (stereo not shown) [CC_H-47, 4-[[[2-Chloro-6-(trifluoromethyl)-phenyl]sulfonyl]amino]-N-methyl-N-(1-pyridin-4-yl-piperidin-4-yl)-3,4-dihydro-2H-chromene-6-carboxylic acid amide] | 104% | 99% | –
5 | CN(C(=O)c1ccc2c(c1)C(NC(=O)c1cncnc1)CC2)C1CCN(c2ccncc2)CC1 (stereo not shown) [CC_H-48, N-[6-[Methyl-(1-pyridin-4-yl-piperidin-4-yl)-carbamoyl]-2,3-dihydro-1H-inden-1-yl]-pyrimidine-5-carboxylic acid amide] | 78% | 96% | –
6 | CN(C(=O)c1ccc2c(c1)C(NC(=O)CCC1CCCC1)CCO2)C1CCN(c2ccncc2)CC1 (stereo not shown) [CC_H-49, 4-(3-Cyclopentyl-propanoylamino)-N-methyl-N-(1-pyridin-4-yl-piperidin-4-yl)-3,4-dihydro-2H-chromene-6-carboxylic acid amide] | 102% | 99% | –
7 | O=C(NCCC1CCN(c2ccncc2)CC1)c1ccc2c(c1)C(NS(=O)(=O)c1c(Cl)cccc1C(F)(F)F)CC2 (stereo not shown) [CC_H-50, 3-[[[2-Chloro-6-(trifluoromethyl)-phenyl]sulfonyl]amino]-N-[2-(1-pyridin-4-yl-piperidin-4-yl)-ethyl]-2,3-dihydro-1H-indene-5-carboxylic acid amide] | 101% | 100% | –
8 | CN(C(=O)N(C)C1CCc2ccc(C(=O)N(C)C3CCN(c4ccncc4)CC3)cc21)c1ccccc1Cl (stereo not shown) [CC_H-51, 3-[[(2-Chlorophenyl)-methyl-carbamoyl]-methyl-amino]-N-methyl-N-(1-pyridin-4-yl-piperidin-4-yl)-2,3-dihydro-1H-indene-5-carboxylic acid amide] | 90% | 99% | –
9 | CN(C(=O)c1ccc2c(c1)C(NC(=O)c1cccc(Cl)c1Cl)CC2)C1CCN(c2ccc3cnccc3c2)CC1 (stereo not shown) [CC_H-52, 3-[(2,3-Dichloro-benzoyl)amino]-N-(1-isoquinolin-6-yl-piperidin-4-yl)-N-methyl-2,3-dihydro-1H-indene-5-carboxylic acid amide] | 98% | 99% | –
10 | CN(C(=O)c1ccc2c(c1)C(NS(=O)(=O)c1c(Cl)cccc1C(F)(F)F)CC2)C1CCN(c2ccncc2)CC1 (stereo not shown) [CC_H-54, 3-[[[2-Chloro-6-(trifluoromethyl)-phenyl]sulfonyl]amino]-N-methyl-N-(1-pyridin-4-yl-piperidin-4-yl)-2,3-dihydro-1H-indene-5-carboxylic acid amide] | 104% | 100% | –
11 | CN(C(=O)c1ccc2c(c1)C(NS(=O)(=O)Cc1ccccc1C(F)(F)F)CC2)C1CCN(c2ccc3cnccc3c2)CC1 (stereo not shown) [CC_H-55, N-(1-Isoquinolin-6-yl-piperidin-4-yl)-N-methyl-3-[[[2-(trifluoromethyl)-phenyl]-methylsulfonyl]amino]-2,3-dihydro-1H-indene-5-carboxylic acid amide] | 96% | 99% | –
12 | CN(C(=O)NC1CCOc2ccc(C(=O)N(C)C3CCN(c4ccncc4)CC3)cc21)c1ccccc1Cl (stereo not shown) [CC_H-57, 4-[[(2-Chlorophenyl)-methyl-carbamoyl]amino]-N-methyl-N-(1-pyridin-4-yl-piperidin-4-yl)-3,4-dihydro-2H-chromene-6-carboxylic acid amide] | – | 100% | 101%
13 | CN(C(=O)c1ccc2c(c1)CCC2NC(=O)C1CCCCC1)C1CCN(c2ccncc2)CC1 (stereo not shown) [CC_H-58, 1-(Cyclohexanecarbonylamino)-N-methyl-N-(1-pyridin-4-yl-piperidin-4-yl)-2,3-dihydro-1H-indene-5-carboxylic acid amide] | 77% | 96% | –
14 | CN(C(=O)c1ccc2c(c1)C(NC(=O)CCC1CCCC1)CC2)C1CCN(c2ccncc2)CC1 (stereo not shown) [CC_H-59, 3-(3-Cyclopentyl-propanoylamino)-N-methyl-N-(1-pyridin-4-yl-piperidin-4-yl)-2,3-dihydro-1H-indene-5-carboxylic acid amide] | 103% | 99% | –
15 | CN(C(=O)c1ccc2c(c1)CCC2NS(=O)(=O)Cc1ccccc1C(F)(F)F)C1CCN(c2ccncc2)CC1 (stereo not shown) [CC_H-61, N-Methyl-N-(1-pyridin-4-yl-piperidin-4-yl)-1-[[[2-(trifluoromethyl)-phenyl]-methylsulfonyl]amino]-2,3-dihydro-1H-indene-5-carboxylic acid amide] | 80% | 100% | –
16 | CN(C(=O)c1ccc2c(c1)C(NC(=O)c1c(Cl)cccc1C(F)(F)F)CC2)C1CCN(c2ccc3cnccc3c2)CC1 (stereo not shown) [CC_H-62, 3-[[2-Chloro-6-(trifluoromethyl)-benzoyl]amino]-N-(1-isoquinolin-6-yl-piperidin-4-yl)-N-methyl-2,3-dihydro-1H-indene-5-carboxylic acid amide] | 101% | 84% | –
17 | CN(C(=O)c1ccc2c(c1)C(NC(=O)c1cc(F)ccc1Cl)CCO2)C1CCN(c2ccncc2)CC1 (stereo not shown) [CC_H-63, 4-[(2-Chloro-5-fluoro-benzoyl)amino]-N-methyl-N-(1-pyridin-4-yl-piperidin-4-yl)-3,4-dihydro-2H-chromene-6-carboxylic acid amide] | 103% | 99% | –
18 | CN(C(=O)c1ccc2c(c1)CCC2NC(=O)c1cc(F)ccc1Cl)C1CCN(c2ccncc2)CC1 (stereo not shown) [CC_H-64, 1-[(2-Chloro-5-fluoro-benzoyl)amino]-N-methyl-N-(1-pyridin-4-yl-piperidin-4-yl)-2,3-dihydro-1H-indene-5-carboxylic acid amide] | 87% | 100% | –
19 | CN(C(=O)c1ccc2c(c1)CCC2NC(=O)CCC1CCCC1)C1CCN(c2ccncc2)CC1 (stereo not shown) [CC_H-65, 1-(3-Cyclopentyl-propanoylamino)-N-methyl-N-(1-pyridin-4-yl-piperidin-4-yl)-2,3-dihydro-1H-indene-5-carboxylic acid amide] | 48% | 98% | –
20 | Cc1cccc(C)c1C(=O)NC1CCc2cc(C(=O)N(C)C3CCN(c4ccncc4)CC3)ccc21 (stereo not shown) [CC_H-66, 1-[(2,6-Dimethyl-benzoyl)amino]-N-methyl-N-(1-pyridin-4-yl-piperidin-4-yl)-2,3-dihydro-1H-indene-5-carboxylic acid amide] | 86% | 99% | –
21 | CN(C(=O)c1ccc2c(c1)CCC2NC(=O)c1cccc(Cl)c1Cl)C1CCN(c2ccncc2)CC1 (stereo not shown) [CC_H-67, 1-[(2,3-Dichloro-benzoyl)amino]-N-methyl-N-(1-pyridin-4-yl-piperidin-4-yl)-2,3-dihydro-1H-indene-5-carboxylic acid amide] | 98% | 100% | –
22 | CN(C(=O)c1ccc2c(c1)CCC2NC(=O)c1ccccc1Cl)C1CCN(c2ccncc2)CC1 (stereo not shown) [CC_H-68, 1-[(2-Chloro-benzoyl)amino]-N-methyl-N-(1-pyridin-4-yl-piperidin-4-yl)-2,3-dihydro-1H-indene-5-carboxylic acid amide] | 87% | 96% | –
23 | CN(C(=O)c1ccc2c(c1)C(N(C)C(=O)C1CCCCC1)CC2)C1CCN(c2ccncc2)CC1 (stereo not shown) [CC_H-69, 3-(Cyclohexanecarbonyl-methyl-amino)-N-methyl-N-(1-pyridin-4-yl-piperidin-4-yl)-2,3-dihydro-1H-indene-5-carboxylic acid amide] | – | 99% | 104%
